Measurements taken from patent US9938240B2, “Fluorinated derivatives of 3-hydroxypyridin-4-ones” (Apotex Technologies Inc., priority 2009, dated 2018).
Where two headings read alike, the source gives them in different places.

Assays:
[1] = Distribution coefficient determination, D7.4 (1-octanol / K2HPO4 buffer); format: physicochemical; conditions: 1-octanol / K2HPO4 buffer 50 mM pH 7.4; for logD: read-out: Log D7.4
Procedure: K2HPO4 buffer (50 mM, pH=7.4) and 1-octanol were used as the aqueous phase and the organic phase, respectively. The K2HPO4 buffer and 1-octanol were mixed, and pre-saturated with each other before use.
In a typical experiment, an aqueous solution of Apo6995 (3-hydroxy-2-methyl-1-(2,2,2-trifluoroethyl)pyridin-4(1H)-one) was prepared by weighing out 3 mg of the compound into a 10-mL test-tube. It was then mixed with K2HPO4 buffer (2 mL) and sonicated for 30 minutes with frequent vortexing. The solution was then filtered through HPLC syringe filter (4 mm PVDF syringe filter 0.45 μM) to obtain the aqueous solution.
One mL of this aqueous solution was pipetted out into another 10-mL test-tube and mixed with 1 mL of 1-octanol. The mixture was then vortexed for 1 hour. The solution was centrifuged at 2000 rpm for 10 minutes. A small amount of the lower aqueous layer was carefully pipetted out and analyzed by HPLC to obtain the peak height (HF). The distribution coefficient, D7.4, was calculated using the following equation: D7.4=(HI−HF)/HF.

[2] = tested on: SH-SY5Y human neuroblastoma cells; conditions: for CC2 (cytotoxic concentration): H2O2-treated cells, viability below 80%; for CC1 (cytotoxic concentration): absence of H2O2, viability below 80%
Source text: Hydrogen peroxide (H2O2) is a major ROS (reactive oxidative species), which causes oxidative stress, and can induce apoptosis in many different cell types. One of the CNS drug design strategies is to use compounds with antioxidant properties as a possible treatment of both acute and chronic neurodegenerative diseases (Kang et al. Bioorganic & Medicinal Chemistry Letters, 2004, 14, 2261-2264). This involves testing the compounds of this invention for their protective effect against oxidative stress-induced cell death in SH-SY5Y human neuroblastoma cells. SH-SY5Y human neuroblastoma cells were cultured in DMEM (ATCC)/F12 (Cellgro) with 10% FBS. The cells were plated at 30,000 cells/cm^2 and grown for 1 day in the regular culture media prior to compound addition. Cells were routinely treated with the test compound, at a pre-determined range of concentrations, in the presence or absence of 50 μM hydrogen peroxide in a basal medium containing no FBS for 16-22 h. Cell viability was then measured using the routine MTT method (Mosmann, T., Rapid Colorimetric Assay for Cellular Growth and Survival: Application to Proliferation and Cytotoxicity Assays”. J. Immunol. Meth. 1983, 65, 55-63).
For data analysis, cell viability relative to control not treated with either H2O2 or the test compound, was plotted against the compound concentration. […] Cytotoxicity of the test compound was assessed in the absence of hydrogen peroxide.

[3] = tested on: human neuroblastoma MC-65 cells; test: cells; conditions: for EC100 / minimal effective concentration: Homo sapiens, MC65, 48 h; for EC100: read-out: EC100 (maximum effective concentration); for minimal effective concentration: read-out: TH (threshold protective concentration); for CC2 (cytotoxic concentration): MC-65, cultured without tetracycline; for CC2 (cytotoxic concentration) / CC1 (cytotoxic concentration): viability below 80%; for CC1 (cytotoxic concentration): MC-65, presence of TET
Procedure: In this assay, human neuroblastoma cells (MC-65 cells) are genetically engineered to conditionally express amyloid β peptide (Aβ). The Aβ production is suppressed by tetracycline (TET+) presence in culture medium, and its production is activated when TET is withdrawn (TET−). The activation of Aβ production results in cell death “MC-65 suicide”.
Protective effect of compounds against edogenously produced amyloid beta (Aβ) was assessed in human neuroblastoma MC-65 cells. MC-65 cells have been stably transformed to conditionally express high levels of a partial amyloid precursor (AP) fusion protein (Bryce Sopher et al., Brain Res Mol Brain Res. 1994, 207-17.). This protein is further proteolitically processed in the cells to form a set of AP-derived Aβ peptides. […] Activity of the promoter is tightly regulated by the presence of the antibiotic tetracycline (TET) in the culture medium. In the presence of TET (TET+), the promoter is in the basal state and no amyloid beta peptide is synthesized. In the absence of TET (TET−) the promoter is in induced state, resulting in the accumulation of Aβ peptides in the cells, degenerative changes in cell morphology and decreased survival.
Transfected human neuroblastoma cells (MC-65) were cultured in DMEM (ATCC) supplemented with non-essential amino acids and 10% FBS (VWR) in the presence of TET (1 μg/mL). For the experiment, the cells were plated at 35,000 cells/cm^2 and grown for 1 day in the regular culture media prior to compound addition. On the day of the assay, culture supernatant was removed from the wells and cells were thoroughly washed once with the compound incubation matrix containing no FBS and no TET. MC-65 cells were treated with a test compound at pre-determined range of concentrations in a basal medium containing no FBS and in the absence or presence of 1 μg/mL TET for approximately 48 h. Cell viability was then measured using the MTT method.
For data analysis, cell viabilities relative to the control not treated with a test compound and maintained in the presence of TET were plotted against the compound concentration. […] Cytotoxicity of the test compound was assessed in the cells maintained in the presence of TET.

[4] = Pharmacokinetics following oral administration to rats; format: in vivo, male Sprague Dawley rats; conditions: rat, oral 50 mg/kg in 0.5% CMC; for Brain AUC_D_obs / Brain Cmax_D / Plasma AUC_D_obs / Plasma Cmax_D: dose-normalized
Procedure: Adult male Sprague Dawley rats (275-325 g, Charles River Laboratories, Saint Constant, Quebec) were orally dosed with 50 mg/kg of test compound (Apo7323, Apo7433, Apo7435 or Apo7448) suspended in 0.5% carboxymethylcellulose (CMC) in water. For each test compound, samples were obtained from the plasma and brain of three animals per time point, at 0 (dosed with 0.5% CMC), 0.25, 0.5, 1, 2, 4, 8 and 12 h following administration. The concentration of the compound in rat plasma and brain samples was determined by HPLC-UV. Pharmacokinetic parameters were computed using the PKPlus Module in GastroPlus® ver. 8.0 (Simulations Plus Inc., Lancaster, Calif.). Calculation method: linear trapezoidal with linear interpolation.

[5] = Oral cassette dosing PK/BBB studies; format: in vivo, male Sprague-Dawley rats; conditions: oral cassette dosing; for Kp / AUC: rat; for Kp: brain and plasma, read-out: AUC brain/AUC plasma; for AUC: plasma
Procedure: In-vivo pharmacokinetic (PK) and blood brain barrier (BBB) studies were conducted in male Sprague-Dawley rats using cassette dosing via oral administration. […] No. 15, pp. 652-658.

[6] = background value; cited from earlier work
[7] = Cyclic voltammetry of iron complexes; format: physicochemical
[8] = male Sprague-Dawley rats, AUC normalized to 1 mg/kg dose
[9] = 0.1M aqueous NaCl, pH 7.4, vs. Ag/AgCl

Row | Compound | D7.4 [1] | CC2 (cytotoxic concentration) [2] [µM] | CC1 (cytotoxic concentration) [2] [µM] | EC100 [3] [µM] | minimal effective concentration [3] [µM] | CC2 (cytotoxic concentration) [3] [µM] | CC1 (cytotoxic concentration) [3] [µM] | logD [1] | other results
1 | Cc1c(O)c(=O)ccn1CC(F)F [Apo7069, 1-(2,2-difluoroethyl)-3-hydroxy-2-methylpyridin-4(1H)-one] | 0.66 | >640 | 80 | 40 | 0.1 | 80 | 80 | – | Log D7.4 [1]: −0.18
2 | Cc1c(Cl)c(=O)c(O)c(CC(F)(F)F)n1C [Apo7040, 3-chloro-5-hydroxy-1,2-dimethyl-6-(2,2,2-trifluoroethyl)pyridin-4(1H)-one] | 8.76 | >640 | 160 | 40 | 1 | 80 | 40 | 0.94 | –
3 | Cn1cc(Cl)c(=O)c(O)c1CC(F)(F)F [Apo7066, 5-chloro-3-hydroxy-1-methyl-2-(2,2,2-trifluoroethyl)pyridin-4(1H)-one] | 4.69 | 160 | 160 | 10 | 0.1 | 80 | 80 | 0.67 | –
4 | Cc1[nH]cc(C(N2CCOCC2)C(F)(F)F)c(=O)c1O (stereo not drawn) [Apo7433, 3-hydroxy-2-methyl-5-(2,2,2-trifluoro-1-morpholinoethyl)pyridin-4(1H)-one] | – | 320 | 320 | 10 | 1 | 40 | 40 | – | CL [4]: 62.7 mL/min/kg; Brain AUC_D_obs [4]: 0.039 kg·µg·h/mL/mg; Brain Cmax_D [4]: 0.400 kg·µg/mL/mg; Plasma AUC_D_obs [4]: 0.860 kg·µg·h/mL/mg; Plasma Cmax_D [4]: 0.396 kg·µg/mL/mg
5 | Cc1c(O)c(=O)ccn1CC(F)(F)F [Apo6995, 3-hydroxy-2-methyl-1-(2,2,2-trifluoroethyl)pyridin-4(1H)-one] | 2.51 | 320 | 320 | 20 | 0.1 | 80 | 80 | 0.4 | AUC brain* [5, 8]: 300 ng·h/mL; Kp ([5]; male Sprague-Dawley rats): 1.2; AUC [5, 8]: 260 ng·h/mL
6 | CN(C)C(c1c(O)c(=O)c(Cl)cn1C)C(F)(F)F (stereo not drawn) [Apo7060, 5-chloro-2-[1-(dimethylamino)-2,2,2-trifluoroethyl]-3-hydroxy-1-methylpyridin-4(1H)-one] | 4.93 | >640 | 80 | 10 | 1 | 20 | 40 | 0.69 | –
7 | CCc1c(O)c(=O)ccn1CC(F)(F)F [Apo7030, 2-ethyl-3-hydroxy-1-(2,2,2-trifluoroethyl)pyridin-4(1H)-one] | 5.93 | >640 | 640 | 20 | 1 | 40 | 40 | 0.77 | AUC brain* (cal.) ([5]; rats, normalized to 1 mg/kg, value marked (cal.)): 0.59 cal·µg·h/mL; Kp ([5]; male Sprague-Dawley rats): 1; AUC [5, 8]: 590 ng·h/mL
8 | Cn1ccc(=O)c(O)c1C(N1CCOCC1)C(F)(F)F (stereo not drawn) [Apo7448, 3-hydroxy-1-methyl-2-(2,2,2-trifluoro-1-morpholinoethyl)pyridin-4(1H)-one] | – | 320 | 80 | 20 | 1 | 40 | 40 | – | CL [4]: 52 mL/min/kg; Brain AUC_D_obs [4]: 0.486 kg·µg·h/mL/mg; Brain Cmax_D [4]: 0.178 kg·µg/mL/mg; Plasma AUC_D_obs [4]: 1.07 kg·µg·h/mL/mg; Plasma Cmax_D [4]: 0.334 kg·µg/mL/mg
9 | Fe-transferrin: iron bound to the blood protein transferrin | – | – | – | – | – | – | – | – | E1/2 vs. Ag/AgCl [6]: −720 my; E1/2 vs. NHE [6]: −500 my
10 | Cc1c([O-])c(=O)ccn1C.Cc1c([O-])c(=O)ccn1C.Cc1c([O-])c(=O)ccn1C.[Fe+3] [Fe(L1)3] | – | – | – | – | – | – | – | – | E1/2 vs. Ag/AgCl ([7]; 0.1M aqueous NaCl, pH 7.4): −797 mV; E1/2 vs. NHE ([7]; 0.1M aqueous NaCl, pH 7.4): −577 mV; ΔE ([7]; 0.1M aqueous NaCl, pH 7.4): 89 mV; Eox [7, 9]: −752 mV; Ered [7, 9]: −841 mV; redox potential E1/2 (vs. NHE) ([7]; pH 7.4, as quoted): −628 my
